From patent US8288377B2, “Inhibitors of the interaction between MDM2 and p53” (Janssen Pharmaceutica N.V., priority 2007, dated 2012)

Legend:
[1] = system: A2780 ovarian cancer cells; test: Proliferation assay (Alamar Blue); assay type: cell-based; details: Homo sapiens, 96 h, 4-day incubation, read-out: pIC50 (negative log value of the IC50-value) (converted)
Protocol: Cellular activity of the compounds of formula (I) was determined on A2780 tumour cells using a colorimetric assay for cell toxicity or survival (see example C.2).
The human A2780 ovarian cancer cells were a kind gift from Dr. T. C. Hamilton (Fox Chase Cancer Centre, Pennsylvania, U.S.A.). The cells were cultured in RPMI 1640 medium supplemented with 2 mM L-Glutamine, 50 μg/ml gentamicin and 10% fetal calf serum.
Resazurin was purchased from Aldrich (Prod. No. 199303). Potassium ferrocyanide, potassium ferricyanide, KH2PO4 and K2HPO4 were purchased from Sigma (Prod. Nos. P9387, P8131, P5655 and P8281, respectively).
Potassium Phosphate Buffer 0.1 M (PPB) was made as follows: 2.72 gram KH2PO4 and 13.86 gram K2HPO4 were dissolved in 500 ml milli-Q H2O, the pH was adjusted to pH 7.4 and the volume was brought to 1 liter with milli-Q H2O; the buffer was filter sterilised and stored at room temperature. Resazurin stock solution (PPB-A) was prepared fresh by dissolving 45 mg resazurin in 15 ml PBS. 30 mM potassium ferricyanide (PPB-B) was prepared by dissolving 0.987 gram potassium ferricyanide in 100 ml PPB. 30 mM potassium ferrocyanide (PPB-C) was prepared by dissolving 1.266 gram potassium ferrocyanide in 100 ml PPB.
Mixture of PPB-A, PPB-B and PPB-C was prepared by mixing equal volumes of the respective solutions. Resazurin work solution (herein termed “Alamar Blue” solution) was prepared by diluting said mixture 20× (vol/vol) in PPB and filter sterilising; the Alamar Blue solution could be kept at 4° C. for a maximum of 2 weeks.
For experiments in 384 wells plates the cells were seeded at a density of 5×10^3 cells/ml in Falcon 384-well culture plates (Life Technologies, Merelbeke, Belgium), black with clear bottom, in 45 μl culture medium. Cells were allowed to adhere to plastic for 24 hr. The tested compound was pre-diluted (1/50 in culture medium) and 5 μl pre-diluted compound was added to the wells. Following 4-day incubation, 10 μl of the Alamar Blue solution was added to each well and the cells were further incubated for 5 hrs (A2780) at 37° C. The fluorescence intensity was measured for each well with a Fluorescence plate reader (Fluorskan, Labsystems, 540 nm excitation and 590 nm emission)
The antiproliferative activity was calculated as percentage of remaining viable cells in treated versus control (untreated cells) conditions. Within an experiment, the result for each experimental condition is the mean of 3 replicate wells. When appropriate, the experiments were repeated to establish full concentration-response curves. When appropriate, IC50-values (concentration of the drug, needed to reduce cell growth to 50% of the control) were computed using probit analysis for graded data (Finney, D. J., Probit Analyses, 2nd Ed. Chapter 10, Graded Responses, Cambridge University Press, Cambridge 1962). Herein the effects of test compounds are expressed as pIC50 (the negative log value of the IC50-value) (see Table 4).

p53 in A2780 cells = test: p53 ELISA (preservation of p53 in A2780 cells); assay type: cell-based; details: Homo sapiens, treated with compound for 16 hours, read-out: p53-elisa LAD (lowest dose giving at least 140% of the value for p53 present in the control)
Protocol: The capacity of the compounds to preserve p53 in A2780 cells was measured with the p53 enzyme linked immunosorbent assay (ELISA). The p53 assay is a “sandwich” enzyme immunoassay employing two polyclonal antibodies. A polyclonal antibody, specific for the p53 protein, has been immobilized onto the surface of the plastic wells. Any p53 present in the sample to be assayed will bind to the capture antibody. The biotinylated detector polyclonal antibody also recognizes p53 protein, and will bind to any p53, which has been retained by the capture antibody. The detector antibody, in turn, is bound by horseradish peroxidase-conjugated streptavidin. The horseradish peroxidase catalyses the conversion of the chromogenic substrate o-phenylene diamine, the intensity of which is proportional to the amount of p53 protein bound to the plate. The coloured reaction product is quantified using a spectrophotometer. Quantitation is achieved by the construction of a standard curve using known concentrations of purified recombinant HIS tagged p53 protein (see example C.1).
A2780 cells (ATCC) were cultivated in RPMI 1640 supplemented with 10% fetal calf serum (FCS), 2 mM L-glutamine and gentamycin at 37° C. in a humidified incubator with 5% CO2.
A2780 cells were seeded at 20.000 cells per well in a 96 well plate, cultured for 24 hours and treated with compound for 16 hours at 37° C. in a humidified incubator. After incubation, the cells were washed once with phosphate-buffered saline and 30 μl, per well, low salt RIPA buffer (20 mM tris, pH7.0, 0.5 mM EDTA, 1% Nonidet P40, 0.5% DOC, 0.05% SDS, 1 mM PMSF, 1 μg/ml aprotinin and 0.5 μ/ml leupeptin) was added. Plates were placed on ice for 30 minutes to complete the lysis. p53 protein was detected in de lysates by using the sandwich ELISA, described below.
High binding polystyrene EIA/RIA 96 well plates (Costar 9018) were coated with the capture antibody pAb1801 (Abcam ab28-100) at a concentration of 1 μg/ml in coating buffer (0.1 M NaHCO3 pH8.2), 50 μl per well. The antibody was allowed to adhere overnight at 4° C. Coated plates were washed once with phosphate-buffered saline (PBS)/0.05% Tween 20 and 300 μl of blocking buffer (PBS, 1% bovine serum albumins (BSA)) was added, for an incubation period of 2 hours at room temperature. Dilutions of purified recombinant HIS tagged p53 protein, ranging from 3-200 ng/ml, were made in blocking buffer and used as standards.
Plates were washed twice with PBS/0.05% Tween 20 and blocking buffer or standards were added at 80 μl/well. To the standards, 20 μl of lysis buffer was added. The samples were added to the other wells at 20 μl lysate/well. After an overnight incubation at 4° C., plates were washed twice with PBS/0.05% Tween 20. Aliquots of 100 μl secondary polyclonal antibody p53(FL-393) (Tebubio, sc-6243) at a concentration of 1 μg/ml in blocking buffer were added to each well and allowed to adhere for 2 hours at room temperature. Plates were washed three times with PBS/0.05% Tween 20. Detection antibody anti-rabbit HRP (sc-2004, Tebubio) at 0.04 μg/ml in PBS/1% BSA was added and incubated for 1 hour at room temperature. Plates were washed three times with PBS/0.05% Tween 20 and 100 μl of substrate buffer was added (substrate buffer was prepared shortly before use by adding 1 tablet of 10 mg o-phenylene diamine (OPD) from Sigma and 125 μl 3% H2O2 to 25 ml OPD buffer: 35 mM citric acid, 66 mM Na2HPO4, pH5.6). After 5 to 10 minutes, colour reaction was stopped by adding 50 μl stop buffer (1 M H2SO4) per well. The absorbance at dual wavelengths of 490/655 nm was measured using a Biorad micro plate reader and the results were then analyzed.
For each experiment, controls (containing no drug) and a blank incubation (containing no cells or drugs) were run in parallel. The blank value was subtracted from all control and sample values. For each sample, the value of p53 (in absorbance units) was expressed as the percentage of the value for p53 present in the control. […]

Row | Structure (SMILES) | IC50 [1] [µM] | minimal effective concentration (p53 in A2780 cells) [µM]
1 | Cc1cccc2c(CCN3CCOc4cc(Nc5ccnc6c5CCC6O)ccc43)c[nH]c12 (centres unmarked) [Compound 14] | 2.88 | 3
2 | CCC1(C)CN(CCc2c[nH]c3ccccc23)c2ccc(Nc3ccncc3)cc2O1 (centres unmarked) [Compound 54] | 3.63 | > 10
3 | Cc1cccc2c(CCN3CC4(CCCCC4)Oc4cc(Nc5ccnc(CO)c5)ccc43)c[nH]c12 [Compound 34] | 4.37 | 0.3
4 | Cc1cccc2c(CCN3CC(C)Oc4cc(Nc5ccnc6c5CCC6O)ccc43)c[nH]c12 (centres unmarked) [Compound 42] | 4.79 | > 10
5 | OC1CCc2c(Nc3ccc4c(c3)CCCN4CCc3c[nH]c4ccccc34)ccnc21 (centres unmarked) [Compound 11] | 2.34 | 0.1
6 | c1ccc2c(CCN3CCOc4cc(Nc5ccncc5)ccc43)c[nH]c2c1 [Compound 3] | > 10 | > 10
7 | Cc1cccc2c(CCN3CC4(CCCCC4)Oc4cc(Nc5ccnc6c5CCC6O)ccc43)c[nH]c12 (centres unmarked) [Compound 25] | ~5.62 | 0.03
8 | OCc1cc(Nc2ccc3c(c2)OC2(CCCC2)CN3CCc2c[nH]c3ccccc23)ccn1 [Compound 40] | ~4.79 | > 10
9 | c1ccc2c(CCN3CC4(CCSCC4)Oc4cc(Nc5ccncc5)ccc43)c[nH]c2c1 [Compound 56] | ~4.79 | > 10
10 | OCc1cc(Nc2ccc3c(c2)CCCN3CCc2c[nH]c3ccccc23)ccn1 [Compound 66] | 1.41 | 3
11 | CCC1(C)CN(CCc2c[nH]c3ccccc23)c2ccc(Nc3ccnc(CO)c3)cc2O1 (centres unmarked) [Compound 46] | 6.92 | > 10
12 | OC1CCc2c(Nc3cc(F)c4c(c3)OCCN4CCc3c[nH]c4ccccc34)ccnc21 (centres unmarked) [Compound 13] | 4.47 | 1
13 | CC(C)N1CCC2(CC1)CN(CCc1c[nH]c3ccccc13)c1ccc(Nc3ccncc3)cc1O2 [Compound 8] | 1.26 | > 10
14 | CC1(C)CN(CCc2c[nH]c3ccccc23)c2ccc(Nc3ccncc3)cc2O1 [Compound 62] | 5.37 | > 10
15 | OCc1cc(Nc2ccc3c(c2)OC2(CCSCC2)CN3CCc2c[nH]c3ccccc23)ccn1 [Compound 39] | ~4.79 | > 10
16 | COc1cccc2c(CCN3CCOc4cc(Nc5ccnc(CO)c5)ccc43)c[nH]c12 [Compound 81] | 4.17 | > 10
17 | OCc1cc(Nc2ccc3c(c2)OCCN3CCc2coc3ccccc23)ccn1 [Compound 68] | 5.25 | > 10
18 | OCc1cc(Nc2cc(F)c3c(c2)OCCN3CCc2c[nH]c3ccccc23)ccn1 [Compound 69] | > 10 | 10
19 | Fc1cc(Nc2ccncc2)cc2c1N(CCc1c[nH]c3ccccc13)CCO2 [Compound 50] | 8.13 | > 10
20 | CC1Oc2cc(Nc3ccncc3)ccc2N(CCc2c[nH]c3ccccc23)C1=O (centres unmarked) [Compound 61] | > 10 | > 10
21 | OCc1cc(Nc2ccc3c(c2)OC(c2ccoc2)CN3CCc2c[nH]c3ccccc23)ccn1 (centres unmarked) [Compound 35] | ~5.13 | 3
22 | OC1CCc2c(Nc3ccc4c(c3)OC3(CCCC3)CN4CCc3c[nH]c4ccccc34)ccnc21 (centres unmarked) [Compound 28] | 4.9 | 3
23 | COc1cccc2c(CCN3CCOc4cc(Nc5ccncc5)ccc43)c[nH]c12 [Compound 47] | ~6.46 | > 10
24 | OCc1cc(Nc2ccc3c(c2)OC2(CCCCC2)CN3CCc2c[nH]c3ccccc23)ccn1 [Compound 41] | ~4.79 | > 10
25 | c1ccc2c(CCN3CC4(CCNCC4)Oc4cc(Nc5ccncc5)ccc43)c[nH]c2c1 [Compound 15] | 8.32 | > 10
